Assay results: PMC3863390 (Molecular nutrition & food research, 2012)
Where “and” joins values, the source holds several entries; their conditions need not be identical. Equal values may be shown once.

Legend:
[1] = tested on: human bladder cancer cell lines (HBCCs); format: cell-based; conditions: p>0.8, data not shown
RT4 cells [2] = assay: SRB cell viability assay in RT4 cells; format: cell-based, human; conditions: for RT4 cell viability inhibition: 20 μM, 48 hr
PARP [3] = assay: Western blot of PARP cleavage, UMUC3; format: cell-based, human; conditions: 20 μM, 48 hr
UMUC3 cells = assay: cells; format: cell-based; conditions: Homo sapiens, UMUC3, 48 h, read-out: IC50, cell viability
RT4 cells [4] = assay: Cell cycle analysis by flow cytometry, RT4; format: cell-based, human; conditions: 20 μM, 48 hr
UMUC3 xenograft = UMUC3 xenograft in athymic nude mice; format: in vivo, mouse; conditions: 295 μmol/kg/day oral gavage, 2 weeks
survivin [5] = assay: Western blot of survivin expression, UMUC3; format: cell-based, human; conditions: 20 μM, 48 hr
HER2/neu [6] = assay: Western blot of HER2/neu expression, UMUC3; format: cell-based, human; conditions: 20 μM, 48 hr
J82 cells [7] = assay: Cell cycle analysis by flow cytometry, J82; format: cell-based, human; conditions: 20 μM, 48 hr
EGFR [8] = assay: Western blot of EGFR expression, RT4; format: cell-based, human; conditions: 20 μM, 48 hr
survivin [9] = conditions: RT4; 20 μM, 48 hr
J82 cells [10] = assay: SRB cell viability assay in J82 cells; format: cell-based; conditions: Homo sapiens, J82, 48 h, read-out: IC50, cell viability
PARP [11] = assay: Western blot of PARP cleavage, RT4; format: cell-based, human; conditions: 20 μM, 48 hr
caspase 3/7 = assay: Apo-ONE caspase-3/7 assay, RT4; format: cell-based, human; conditions: 10 μM, 48 hr
HER2/neu [12] = assay: Western blot of HER2/neu expression, RT4; format: cell-based, human; conditions: 20 μM, 48 hr
[13] = tested on: Normal human bladder urothelial cells (NHU); assay: tissue or blood; format: cell-based
EGFR [14] = assay: Western blot of EGFR expression, UMUC3; format: cell-based, human; conditions: 20 μM, 48 hr

For `C[S@+]([O-])CCCCN=C=S` [S-sulforaphane], the “difference between isomers in inhibitory effects of HBCCs” value [1] was “no difference”.

For `C[S+]([O-])CCCCN=C=S` (centres unmarked) [R-sulforaphane], the “difference between isomers in inhibitory effects of HBCCs” value [1] was “no difference”.

With `C[S+]([O-])CCCN=C=S` (centres unmarked) [iberin] the “RT4 cell viability inhibition” value (RT4 cells [2]) was 12%.

With `C=CCN=C=S` [allyl isothiocyanate] the “RT4 cell viability inhibition” value (RT4 cells [2]) was 28%.

`C[S+]([O-])CCCCN=C=S` (centres unmarked) [sulforaphane] was tested, and the PARP cleavage increase (PARP [3]) was 3.6 fold, the IC50 (UMUC3 cells) was 5.66 ± 1.2 µM and the “increase of cells in the G2/M phase compared to control” value (RT4 cells [4]) was 2.6 fold. The “inhibition of tumor growth rate” value (UMUC3 xenograft) was 42%, the “decrease in final tumor weight” value (UMUC3 xenograft; versus vehicle control soy bean oil) was 33% and the survivin expression downregulated (survivin [5]) was 35%. The HER2/neu downregulated (HER2/neu [6]) was 90%, the “increase of cells in the G2/M phase” value (J82 cells [7]) was 3 fold and the “changes in EGFR expression” value (EGFR [8]) was “does not lead to significant changes”. The “decrease in survivin expression” value (survivin [9]) was 51% and 44%, the IC50 (J82 cells [10]) was 7.7 ± 1.8 µM and the PARP cleavage increase (PARP [11]) was 2.3 fold. The “RT4 cell viability inhibition” value (RT4 cells [2]) was 64%, the IC50 (RT4 cells [2]; Homo sapiens, RT-4, 48 h, read-out: IC50, cell viability) was 11.2 ± 0.3 µM and the “increase in caspase 3/7 activity compared to control” value (caspase 3/7) was 2.5 fold. For the same compound, the “decrease of HER2/neu expression” value (HER2/neu [12]) was 10%, the inhibition at 20 µM ([13]; Homo sapiens, 72 h, read-out: inhibition of NHU) was 62% and the “IC50, cell viability” value ([13]; NHU cells, 72 hr) was “not reached”. The “EGFR protein expression downregulated” value (EGFR [14]) was 54%.
